Measurements: BindingDB's records for doi:10.7270/Q2H70D7S (Burnham Center For Chemical Genomics, 2010)

Target: Kappa-type opioid receptor (Homo sapiens, UniProt P41145)
Test: kappa opioid receptor blockers, cell-based, luminescence, beta-arrestin, SAR follow-up (AID 2285)

Chain of Kappa-type opioid receptor (P41145 whole entry): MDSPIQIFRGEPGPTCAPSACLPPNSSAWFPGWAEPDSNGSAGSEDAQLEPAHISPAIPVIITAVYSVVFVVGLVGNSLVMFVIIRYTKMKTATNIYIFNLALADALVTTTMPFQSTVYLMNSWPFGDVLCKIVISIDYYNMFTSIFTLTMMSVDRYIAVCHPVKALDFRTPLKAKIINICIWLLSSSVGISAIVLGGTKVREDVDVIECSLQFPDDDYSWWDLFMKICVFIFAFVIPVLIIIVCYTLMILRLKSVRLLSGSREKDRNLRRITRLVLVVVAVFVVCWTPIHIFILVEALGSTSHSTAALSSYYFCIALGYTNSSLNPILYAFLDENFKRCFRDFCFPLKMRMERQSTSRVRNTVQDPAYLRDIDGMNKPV

IC50 [µM]	Compound
3.54	CCC(N=Nc1ccnc2cc(Cl)ccc12)c1ccc(O)cc1 (configuration not stated) [4-[1-[2-(7-chloroquinolin-4-yl)hydrazinyl]propylidene]cyclohexa-2,5-dien-1-one]
10	Oc1ccc(CN=Nc2ccnc3cc(Cl)ccc23)cc1O [(4Z)-4-[[2-(7-chloroquinolin-4-yl)hydrazinyl]methylidene]-2-hydroxycyclohexa-2,5-dien-1-one]
